Publication PMC6199744, “Development of Chemical Proteomics for the Folateome and Analysis of the Kinetoplastid Folateome” (ACS Infectious Diseases, 2018)

Test system: L. major lysate proteins
Test: Multitargeted bead mixture chemoproteomics, single concentration competition, proteome-wide
Type: binding

## Nc1nc2[nH]cc(CCc3ccc(C(=O)N[C@@H](CCC(=O)O)C(=O)O)cc3)c2c(=O)[nH]1 [PTX, pemetrexed]
Protein LMJF.35.1380, MIT[…], BETA SUBUNIT, PUTATIVE
  fold change relative to vehicle control: 0.94
Protein LMJF.35.1830 HY[…], CONSERVED
  fold change vs vehicle control: 0.93
Protein LMJF.35.3340 6-phosphogluconate dehydrogenase
  fold change vs vehicle control: 1.01
Protein LMJF.35.3700 GIM5A PROTEIN, PUTATIVE,[…] PROTEIN, vehicle control = 1
  fold change: 0.93
Protein LMJF.35.3760 60S RIBOSOMAL PROTEIN L27A/L29, PUTATIVE
  fold change vs vehicle control: 1.08
Protein LMJF.35.3840, […] 2 SUBUNIT, PUTATIVE
  fold change relative to vehicle control: 0.83
Protein LMJF.35.3860 T-COMPLEX PROTEIN 1, ETA SUBUNIT, PUTATIVE
  fold change vs vehicle control: 0.97
Protein LMJF.35.4420 MIT[…] TRANSPORTER, PUTATIVE, vehicle control = 1
  fold change: 1.01
Protein LMJF.35.4880, HY[…], CONSERVED (TPR repeat, putative)
  fold change relative to vehicle control: 1.4
Protein LMJF.35.5330, ISOPENTENYL-D[…]-ISOMERASE, PUTATIVE
  fold change relative to vehicle control: 1.04
Protein LMJF.36.0070, STRESS-INDUCIBLE PROTEIN STI1 HOMOLOG
  fold change relative to vehicle control: 1.49
Protein LMJF.36.0480 HY[…], CONSERVED, vehicle control = 1
  fold change: 0.95
Protein LMJF.36.0620 HY[…], CONSERVED
  fold change vs vehicle control: 0.88
Protein LMJF.36.0930 40S RIBOSOMAL PROTEIN S18, PUTATIVE
  fold change vs vehicle control: 1.13
Protein LMJF.36.0990 40S RIBOSOMAL PROTEIN S10, PUTATIVE
  fold change vs vehicle control: 1.06
Protein LMJF.36.1140 SHORT CHAIN 3-HYDROXYACYL-COA DEHYDROGENASE, PUTATIVE, vehicle control = 1
  fold change: 0.9
Protein LMJF.36.1260, FRUCTOSE-1,6-BI[…]
  fold change relative to vehicle control: 1.12
Protein LMJF.36.1340 N-ACETYLT[…] NAT1, PUTATIVE, vehicle control = 1
  fold change: 0.98
Protein LMJF.36.1370 TRANSITIONAL ENDOPLASMIC RETICULUM ATPASE, PUTATIVE,VALOSIN-CONTAINING PROTEIN HOMOLOG
  fold change vs vehicle control: 0.94
Protein LMJF.36.1650 […] 5 SUBUNIT, PUTATIVE
  fold change vs vehicle control: 1.01
Protein LMJF.36.2380, STEROL 24-C-METHYLTRANSFERASE, PUTATIVE
  fold change relative to vehicle control: 0.95
Protein LMJF.36.2950 SUCCINYL-COA LIGASE GDP-FORMING] BETA-CHAIN, PUTATIVE
  fold change vs vehicle control: 0.96
Protein LMJF.36.3210 14-3-3 PROTEIN-LIKE PROTEIN
  fold change vs vehicle control: 0.92
Protein LMJF.36.3410 SHORT CHAIN DEHYDROGENASE-LIKE PROTEIN
  fold change vs vehicle control: 1.04
Protein LMJF.36.3460 HY[…], CONSERVED (NIPSNAP, putative), vehicle control = 1
  fold change: 0.94
Protein LMJF.36.3580 HY[…], CONSERVED (Protein of unknown function (DUF2009), putative), vehicle control = 1
  fold change: 1.01
Protein LMJF.36.3750 40S RIBOSOMAL PROTEIN S27-1, PUTATIVE, vehicle control = 1
  fold change: 0.86
Protein LMJF.36.3910 S-ADENOSYLHO[…]
  fold change vs vehicle control: 0.95
Protein LMJF.36.5010 40S RIBOSOMAL PROTEIN SA, PUTATIVE
  fold change vs vehicle control: 1.03
Protein LMJF.36.5130 HY[…], CONSERVED
  fold change vs vehicle control: 0.91
Protein LMJF.36.5150 HY[…], CONSERVED
  fold change vs vehicle control: 0.87
Protein LMJF.36.5380, NADH DEHYDROGENASE, PUTATIVE
  fold change relative to vehicle control: 0.93
Protein LMJF.36.5390 PHOSPHORIBOSYLPYR[…], PUTATIVE
  fold change vs vehicle control: 0.98
Protein LMJF.36.5620 ISOLEUCYL-TRNA SYNTHETASE, PUTATIVE
  fold change vs vehicle control: 0.96
Protein LMJF.36.6430 PROTEIN TRANSPORT PROTEIN SEC23-LIKE PROTEIN, vehicle control = 1
  fold change: 0.86
Protein LMJF.36.6760 HY[…], CONSERVED
  fold change vs vehicle control: 0.92
Protein LMJF.[…], MIT[…] BETA SUBUNIT, PUTATIVE
  fold change relative to vehicle control: 0.97
Protein LMJF.[…], POLY(A) EXPORT PROTEIN, PUTATIVE
  fold change relative to vehicle control: 1.13
Vs vehicle control, protein LINJ.20.0630 CYTIDINE TR[…], PUTATIVE,CTP SYNTHASE, PUTATIVE
  fold change: 0.98
Vs vehicle control, protein LINJ.20.1390 COATOMER BETA SUBUNIT, PUTATIVE
  fold change: 0.66
Vs vehicle control, protein LMJF.05.1140 VACUOLAR ATPASE SUBUNIT-LIKE PROTEIN
  fold change: 0.84
Vs vehicle control, protein LMJF.07.1090 DELTA-5 FATTY ACID DESATURASE
  fold change: 0.92
Vs vehicle control, protein LMJF.09.0220 HY[…], CONSERVED
  fold change: 0.65
Vs vehicle control, protein LMJF.11.1030 HY[…], CONSERVED
  fold change: 0.9
Vs vehicle control, protein LMJF.14.0640 FATTY ACID ELONGASE, PUTATIVE
  fold change: 0.83
Vs vehicle control, protein LMJF.14.0705 FATTY ACID ELONGASE, PUTATIVE
  fold change: 0.85
Vs vehicle control, protein LMJF.14.1120 KINESIN K39, PUTATIVE
  fold change: 0.88
Vs vehicle control, protein LMJF.16.1610 PROHIBITIN
  fold change: 1.07
Vs vehicle control, protein LMJF.17.0010 HY[…], CONSERVED
  fold change: 0.88
Vs vehicle control, protein LMJF.18.1130 RAS-RELATED PROTEIN RAB-5, PUTATIVE
  fold change: 0.65
Vs vehicle control, protein LMJF.19.1420 CYSTEINE PEPTIDASE A (CPA)
  fold change: 0.88
Vs vehicle control, protein LMJF.21.0280 HY[…], CONSERVED
  fold change: 0.88
Vs vehicle control, protein LMJF.22.1560 40S RIBOSOMAL PROTEIN L14, PUTATIVE
  fold change: 0.87
Vs vehicle control, protein LMJF.23.1220 T-COMPLEX PROTEIN 1, GAMMA SUBUNIT, PUTATIVE
  fold change: 0.94
Vs vehicle control, protein LMJF.24.0370 ASPARTATE AMINOTRANSFERASE, PUTATIVE
  fold change: 1.06
Vs vehicle control, protein LMJF.25.1770 ENOYL-COA REDUCTASE, PUTATIVE
  fold change: 1.06
Vs vehicle control, protein LMJF.26.0170 60S RIBOSOMAL PROTEIN L7, PUTATIVE
  fold change: 0.79
Vs vehicle control, protein LMJF.26.1550 TRIFUNCTIONAL ENZYME ALPHA SUBUNIT, MIT[…]-LIKE PROTEIN
  fold change: 1.12
Vs vehicle control, protein LMJF.26.1610 PROLINE OXIDASE, MIT[…]-LIKE PROTEIN
  fold change: 0.89
Vs vehicle control, protein LMJF.28.1950 X-PRO, DIPEPTIDYL-PEPTIDASE,SERINE PEPTIDASE, CLAN SC, FAMILY S15, PUTATIVE
  fold change: 0.74
Vs vehicle control, protein LMJF.31.1070 BIOTIN/LIPOATE PROTEIN LIGASE-LIKE PROTEIN
  fold change: 0.65
Vs vehicle control, protein LMJF.32.1370 HY[…], CONSERVED
  fold change: 0.79
Vs vehicle control, protein LMJF.34.0490 IMPORTIN BETA-1 SUBUNIT, PUTATIVE
  fold change: 0.77
Vs vehicle control, protein LMJF.34.4060 UBIQUITIN HYDROLASE, PUTATIVE,CYSTEINE PEPTIDASE, CLAN CA, FAMILY C19, PUTATIVE
  fold change: 0.78
Vs vehicle control, protein LMJF.36.1600 […] 1 SUBUNIT, PUTATIVE
  fold change: 0.85
Vs vehicle control, protein LMJF.[…] RIBOSOMAL PROTEIN S7, PUTATIVE
  fold change: 1.19
